ChEMBL document CHEMBL1201862, “PubChem BioAssay data set” (2004)
Activity calls are given as the source filed them.

Key:
[1] = target: Cystic fibrosis transmembrane conductance regulator/Golgi-associated PDZ and coiled-coil motif-containing protein (Homo sapiens, UniProt P13569+Q9HD26); experiment: CAL PDZ peptide-binding inhibitors, dose response, biochemical, fluorescence polarization, Cerulean-tagged CAL PDZ, cherry-picks (AID 504773)
Hexokinase HKDC1 [2] = target: T1, Hexokinase HKDC1 (Homo sapiens, UniProt Q2TB90); experiment: HKDC1 hexokinase inhibitors, dose response, biochemical, W721R variant (AID 504729); type: functional
T1 sequence (Q2TB90 whole entry): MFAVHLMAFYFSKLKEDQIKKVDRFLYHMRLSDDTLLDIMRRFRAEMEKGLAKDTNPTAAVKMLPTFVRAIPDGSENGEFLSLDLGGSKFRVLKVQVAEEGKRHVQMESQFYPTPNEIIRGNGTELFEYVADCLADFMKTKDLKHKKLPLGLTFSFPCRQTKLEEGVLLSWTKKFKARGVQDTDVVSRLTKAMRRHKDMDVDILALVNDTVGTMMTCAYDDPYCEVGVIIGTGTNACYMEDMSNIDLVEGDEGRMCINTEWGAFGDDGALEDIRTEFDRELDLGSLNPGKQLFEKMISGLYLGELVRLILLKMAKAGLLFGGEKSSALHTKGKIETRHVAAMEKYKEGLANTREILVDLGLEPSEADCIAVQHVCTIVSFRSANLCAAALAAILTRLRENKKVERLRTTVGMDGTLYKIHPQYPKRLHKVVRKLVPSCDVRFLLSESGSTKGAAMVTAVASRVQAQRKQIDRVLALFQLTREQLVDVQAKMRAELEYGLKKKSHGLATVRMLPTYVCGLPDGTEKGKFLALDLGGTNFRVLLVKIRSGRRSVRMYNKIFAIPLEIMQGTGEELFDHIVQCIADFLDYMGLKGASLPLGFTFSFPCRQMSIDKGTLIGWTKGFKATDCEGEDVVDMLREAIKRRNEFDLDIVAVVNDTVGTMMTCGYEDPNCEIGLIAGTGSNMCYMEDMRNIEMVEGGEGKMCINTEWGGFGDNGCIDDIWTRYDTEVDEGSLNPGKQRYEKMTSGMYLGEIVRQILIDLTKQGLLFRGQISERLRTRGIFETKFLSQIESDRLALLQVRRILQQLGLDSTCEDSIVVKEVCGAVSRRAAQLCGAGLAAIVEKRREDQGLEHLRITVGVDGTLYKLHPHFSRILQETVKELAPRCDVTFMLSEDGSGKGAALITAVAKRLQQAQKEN

[3] = target: T2, Replicative DNA helicase DnaB (Mycobacterium tuberculosis, UniProt P9WMR3); experiment: DnaB intein splicing inhibitors, dose response, biochemical, cell-free fluorescence (AID 449749); type: functional
T2 sequence (P9WMR3 whole entry): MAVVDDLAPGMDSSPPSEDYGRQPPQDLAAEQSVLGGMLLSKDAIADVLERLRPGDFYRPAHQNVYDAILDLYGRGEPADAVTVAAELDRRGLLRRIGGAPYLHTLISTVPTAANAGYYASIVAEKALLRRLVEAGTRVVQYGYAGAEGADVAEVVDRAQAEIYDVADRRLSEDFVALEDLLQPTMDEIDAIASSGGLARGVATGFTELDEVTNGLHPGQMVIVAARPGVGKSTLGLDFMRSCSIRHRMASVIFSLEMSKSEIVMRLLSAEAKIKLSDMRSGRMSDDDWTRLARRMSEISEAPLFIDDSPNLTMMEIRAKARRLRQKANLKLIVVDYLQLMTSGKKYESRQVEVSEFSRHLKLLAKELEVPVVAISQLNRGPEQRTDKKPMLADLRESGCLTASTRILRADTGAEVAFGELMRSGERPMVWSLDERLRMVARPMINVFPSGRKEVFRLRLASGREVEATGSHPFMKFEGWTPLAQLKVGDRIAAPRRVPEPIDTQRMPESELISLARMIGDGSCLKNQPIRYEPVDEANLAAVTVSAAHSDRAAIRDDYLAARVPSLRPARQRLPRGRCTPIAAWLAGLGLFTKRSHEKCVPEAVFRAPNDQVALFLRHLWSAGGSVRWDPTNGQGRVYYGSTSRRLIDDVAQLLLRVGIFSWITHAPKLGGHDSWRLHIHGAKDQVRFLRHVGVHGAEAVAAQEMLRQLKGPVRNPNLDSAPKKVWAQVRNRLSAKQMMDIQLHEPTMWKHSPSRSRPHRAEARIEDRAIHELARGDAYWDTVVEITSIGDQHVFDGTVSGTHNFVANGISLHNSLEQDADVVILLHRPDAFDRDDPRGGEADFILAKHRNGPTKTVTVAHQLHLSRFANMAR

Protein RecA = target: T3, Protein RecA (Mycobacterium tuberculosis, UniProt P9WHJ3); experiment: Fluorescence Cell-Free Homogeneous Dose Retest to Identify Inhibitors of RecA-Intein Splicing Activity. [Related pubchem assays (depositor defined):AID2097, AID2223, AID489010, AID492950]; type: functional
T3 sequence (P9WHJ3 whole entry): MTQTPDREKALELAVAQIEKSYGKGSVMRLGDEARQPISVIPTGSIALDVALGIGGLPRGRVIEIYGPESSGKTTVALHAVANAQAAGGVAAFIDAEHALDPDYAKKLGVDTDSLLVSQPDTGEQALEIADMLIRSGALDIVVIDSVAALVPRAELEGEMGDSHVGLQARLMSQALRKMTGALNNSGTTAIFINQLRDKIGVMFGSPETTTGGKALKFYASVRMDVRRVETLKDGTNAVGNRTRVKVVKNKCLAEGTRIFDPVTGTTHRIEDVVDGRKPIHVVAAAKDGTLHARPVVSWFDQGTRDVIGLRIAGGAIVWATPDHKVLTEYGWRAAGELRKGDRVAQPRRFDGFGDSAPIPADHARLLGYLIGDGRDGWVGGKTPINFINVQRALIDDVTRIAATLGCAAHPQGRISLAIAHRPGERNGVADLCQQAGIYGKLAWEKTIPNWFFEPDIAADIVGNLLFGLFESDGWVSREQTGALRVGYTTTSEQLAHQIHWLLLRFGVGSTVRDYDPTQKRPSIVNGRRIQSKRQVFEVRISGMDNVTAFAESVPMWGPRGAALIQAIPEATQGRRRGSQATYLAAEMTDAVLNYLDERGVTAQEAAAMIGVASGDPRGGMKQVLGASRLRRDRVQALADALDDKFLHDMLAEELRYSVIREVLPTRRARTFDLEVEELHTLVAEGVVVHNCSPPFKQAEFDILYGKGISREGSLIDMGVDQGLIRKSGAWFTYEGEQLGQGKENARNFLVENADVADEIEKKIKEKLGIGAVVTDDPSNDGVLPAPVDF

Hexokinase HKDC1 [4] = target: T1, Hexokinase HKDC1; experiment: SAR analysis of small molecule inhibitors of hexokinase domain containing I (HKDC1) - Set 3. [Related pubchem assays (depositor defined):AID493160, AID493190]; type: functional
Hexokinase HKDC1 [5] = target: T1, Hexokinase HKDC1; experiment: HKDC1 hexokinase inhibitors, SAR follow-up, biochemical, set 2 (AID 588355); type: functional
[6] = CAL PDZ domain peptide-binding inhibitors, dose response, biochemical, fluorescence polarization, untagged CAL PDZ, cherry-pick (AID 602267); type: functional
Caspase-6 = target: T4, Caspase-6 (Homo sapiens, UniProt P55212); experiment: human caspase-6 inhibitors, dose response, biochemical, VEID-R110 fluorescence, cherry-pick (AID 720632)
T4 sequence (P55212 whole entry): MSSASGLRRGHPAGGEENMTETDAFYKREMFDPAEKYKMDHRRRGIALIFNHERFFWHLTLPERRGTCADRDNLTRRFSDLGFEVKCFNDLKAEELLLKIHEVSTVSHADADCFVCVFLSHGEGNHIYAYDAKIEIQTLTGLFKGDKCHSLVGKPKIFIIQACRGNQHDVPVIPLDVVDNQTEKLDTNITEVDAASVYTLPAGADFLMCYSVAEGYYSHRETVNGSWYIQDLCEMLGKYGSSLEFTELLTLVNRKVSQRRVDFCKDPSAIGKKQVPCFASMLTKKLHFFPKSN

[7] = target: T5, Tyrosyl-DNA phosphodiesterase 2 (Homo sapiens, UniProt O95551); experiment: human TDP2 enzyme inhibitors, dose response, biochemical, epi absorbance, IC50 (AID 743297)
T5 sequence (O95551 whole entry): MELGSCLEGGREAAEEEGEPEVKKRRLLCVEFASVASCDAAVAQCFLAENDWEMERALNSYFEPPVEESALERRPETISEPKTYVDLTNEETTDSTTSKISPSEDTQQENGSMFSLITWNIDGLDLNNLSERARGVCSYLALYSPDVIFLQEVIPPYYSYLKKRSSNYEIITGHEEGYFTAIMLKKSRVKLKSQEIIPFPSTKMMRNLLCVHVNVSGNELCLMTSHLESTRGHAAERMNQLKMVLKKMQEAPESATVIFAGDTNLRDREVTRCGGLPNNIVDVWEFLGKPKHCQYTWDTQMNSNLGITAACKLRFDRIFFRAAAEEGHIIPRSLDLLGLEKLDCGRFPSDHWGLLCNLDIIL

Chain of Cystic fibrosis transmembrane conductance regulator/Golgi-associated PDZ and coiled-coil motif-containing protein (P13569 whole entry, other chains not shown): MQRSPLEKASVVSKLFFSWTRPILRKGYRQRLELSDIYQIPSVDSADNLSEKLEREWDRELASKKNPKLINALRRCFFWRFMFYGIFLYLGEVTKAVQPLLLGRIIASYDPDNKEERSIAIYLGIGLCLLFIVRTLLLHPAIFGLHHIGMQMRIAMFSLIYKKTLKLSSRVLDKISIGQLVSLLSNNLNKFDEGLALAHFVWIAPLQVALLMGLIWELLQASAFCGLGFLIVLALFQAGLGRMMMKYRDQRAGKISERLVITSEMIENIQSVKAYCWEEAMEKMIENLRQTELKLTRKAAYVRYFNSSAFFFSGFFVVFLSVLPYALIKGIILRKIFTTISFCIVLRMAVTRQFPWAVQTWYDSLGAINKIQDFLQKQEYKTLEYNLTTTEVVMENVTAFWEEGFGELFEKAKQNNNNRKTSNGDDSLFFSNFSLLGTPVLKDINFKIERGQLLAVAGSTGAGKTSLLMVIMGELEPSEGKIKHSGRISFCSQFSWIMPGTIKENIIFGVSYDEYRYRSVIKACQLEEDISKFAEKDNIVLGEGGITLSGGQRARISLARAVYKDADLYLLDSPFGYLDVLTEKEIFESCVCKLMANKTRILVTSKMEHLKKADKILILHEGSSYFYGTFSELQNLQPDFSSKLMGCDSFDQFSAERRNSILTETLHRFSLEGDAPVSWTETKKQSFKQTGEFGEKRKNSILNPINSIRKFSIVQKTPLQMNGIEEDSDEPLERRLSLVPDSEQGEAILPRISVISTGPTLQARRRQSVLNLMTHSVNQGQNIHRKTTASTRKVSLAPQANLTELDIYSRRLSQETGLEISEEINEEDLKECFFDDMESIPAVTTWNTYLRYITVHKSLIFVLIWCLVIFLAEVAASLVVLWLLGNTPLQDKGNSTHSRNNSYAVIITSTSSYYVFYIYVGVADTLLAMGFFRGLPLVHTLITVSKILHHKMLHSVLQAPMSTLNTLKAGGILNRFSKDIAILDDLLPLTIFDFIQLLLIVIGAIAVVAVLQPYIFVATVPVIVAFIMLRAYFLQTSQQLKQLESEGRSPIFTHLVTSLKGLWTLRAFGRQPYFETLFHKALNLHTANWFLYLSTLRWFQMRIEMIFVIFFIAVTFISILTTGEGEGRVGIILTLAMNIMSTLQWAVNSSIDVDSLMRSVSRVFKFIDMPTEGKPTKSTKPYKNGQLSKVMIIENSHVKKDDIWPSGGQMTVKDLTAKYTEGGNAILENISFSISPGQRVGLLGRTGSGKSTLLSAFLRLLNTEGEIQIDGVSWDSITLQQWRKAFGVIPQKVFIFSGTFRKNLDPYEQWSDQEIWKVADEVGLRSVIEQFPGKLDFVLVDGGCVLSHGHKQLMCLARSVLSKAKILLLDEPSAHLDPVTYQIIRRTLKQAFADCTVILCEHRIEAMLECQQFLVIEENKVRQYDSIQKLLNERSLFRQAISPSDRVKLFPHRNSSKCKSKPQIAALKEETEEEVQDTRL

## CC(=O)NC1C(=O)N(CCN2CCOCC2)c2ccc(Br)cc21 (centres undefined)
[1]
  AC50: 24.8 µM (active)
Hexokinase HKDC1 [2]
  IC50: 5.24 µM (active)
[3]
  AC50: 14.3 µM (active)
Protein RecA
  EC50: 11 µM (active)
Hexokinase HKDC1 [4]
  IC50: 6.88 µM (active)
Hexokinase HKDC1 [5]
  IC50: 8.67 µM (active)
[6]
  AC50: 82.6 µM (active)
Caspase-6
  AC50: 12.6 µM (active)
[7]
  IC50: 16.3 µM (inactive)
